Data taken from US10301288B2, “Kinase inhibitors” (Topivert Pharma Limited, priority 2013, dated 2019).

How the values were obtained:
Syk = Syk (Homo sapiens (Human), UniProt P43405); experiment: Syk enzyme inhibition (FRET); format: biochemical
Protocol: (§1) The enzyme inhibitory activities of compounds disclosed herein are determined by FRET using synthetic peptides labelled with both donor and acceptor fluorophores (Z-LYTE, Invitrogen Ltd., Paisley, UK).
(§2) The inhibitory activities of compounds of the invention against c-Src and Syk enzymes (Invitrogen), are evaluated in a similar fashion to that described hereinabove. The relevant enzyme (3000 ng/mL or 2000 ng/mL respectively, 2.5 μL) is incubated with the test compound (either 4 μg/mL, 0.4 μg/mL, 0.04 μg/mL, or 0.004 μg/mL, 2.5 μL each) for 2 hr at RT. The FRET peptides (8 μM. 2.5 μL), and appropriate ATP solutions (2.5 μL, 800 μM for c-Src, and 60 μM ATP for Syk) are then added to the enzymes/compound mixtures and incubated for 1 hr. Development reagent (protease, 5 μL) is added for 1 hr prior to detection in a fluorescence microplate reader (Varioskan® Flash, ThermoFisher Scientific).
(§3) In all cases, the site-specific protease cleaves non-phosphorylated peptide only and eliminates the FRET signal. Phosphorylation levels of each reaction are calculated using the ratio of coumarin emission (donor) over fluorescein emission (acceptor), for which high ratios indicate high phosphorylation and low ratios indicate low phosphorylation levels.

PBMCs [1] = experiment: (c) IL-2 and IFN gamma release in CD3/CD28 stimulated PBMC cells; format: cell-based; conditions: Homo sapiens
Protocol: PBMCs from healthy subjects are separated from whole blood using a density gradient (Lymphoprep, Axis-Shield Healthcare). Cells are added to a 96 well plate pre-coated with a mixture of CD3/CD28 monoclonal antibodies (0.3 ug/ml eBioscience and 3 ug/ml BD Pharmingen respectively). Compound at the desired concentration is then added to the wells and the plate left for 3 days under normal tissue culture conditions. […] The IC50 is determined from the dose response curve.

c-Src = c-Src (Homo sapiens (Human), UniProt P12931); experiment: c-Src enzyme inhibition (FRET); format: biochemical
Protocol: as §1, §2, §3

PBMCs [2] = experiment: (i) Cell mitosis assay in PBMCs; format: cell-based; conditions: Homo sapiens, PBMC, 5 μg/mL
Protocol: PBMCs from healthy subjects are separated from whole blood (Quintiles, London, UK) using a density gradient (Histopaque®-1077, Sigma-Aldrich, Poole, UK). The PBMCs (3 million cells per sample) are subsequently treated with 2% PHA (Sigma-Aldrich, Poole, UK) for 48 hr, followed by a 20 hr exposure to varying concentrations of test compounds. At 2 hr before collection, PBMCs are treated with demecolcine (0.1 μg/mL; Invitrogen, Paisley, UK) to arrest cells in metaphase. […] Fluorescence is observed using an ATTUNE flow cytometer (Invitrogen, Paisley, UK), gating for lymphocytes.

p38 MAPKα = p38 MAPKα (Homo sapiens (Human), UniProt Q16539); experiment: p38 MAPKα enzyme inhibition (FRET, Method 2); format: biochemical
Protocol: as §1
The inhibitory activities of test compounds against the p38 MAPKα isoform (MAPK14: Invitrogen), are evaluated indirectly by determining the level of activation/phosphorylation of the down-stream molecule, MAPKAP-K2. The p38 MAPKα protein (80 ng/mL, 2.5 μL) is mixed with the test compound (2.5 μL of either 4 μg/mL, 0.4 μg/mL, 0.04 μg/mL or 0.004 μg/mL) for 2 hr at RT. […] The mixture is incubated for 1 hr at RT. Development reagent (protease, 5 μL) is added for 1 hr prior to detection in a fluorescence microplate reader (Varioskan® Flash, ThermoFisher Scientific).
as §3

β-catenin = experiment: (m) Accumulation of β catenin in d-U937 cells; format: cell-based, human; conditions: Reference Compound at 1 μg/mL defined as 100%
Protocol: U937 cells, a human monocytic cell line, are differentiated into macrophage-type cells by incubation with PMA; (100 ng/mL) for between 48 to 72 hr. The cells are then incubated with either final concentrations of test compound or vehicle for 18 hr. The induction of β-catenin by the test compounds is stopped by replacing the media with 4% formaldehyde solution. Endogenous peroxide activity is neutralised by incubating with quenching buffer (100 μL, 0.1% sodium azide, 1% H2O2 in PBS with 0.05% Tween-20) for 20 min. The cells are washed with washing buffer (200 μL; PBS containing 0.05% Tween-20) and incubated with blocking solution (200 μL; 5% milk in PBS) for 1 hr, re-washed with washing buffer (200 μL) and then incubated overnight with anti-β-catenin antibody solution (50 μL) in 1% BSA/PBS (BD, Oxford, UK).
After washing with washing buffer (3×200 μL; PBS containing 0.05% Tween-20), cells are incubated with an HRP-conjugated secondary antibody solution (100 μL) in 1% BSA/PBS (Dako, Cambridge, UK) and the resultant signal is determined colourimetrically (OD: 450 nm with a reference wavelength of 655 nm) using TMB substrate (50 μL; R&D Systems, Abingdon, UK). This reaction is stopped by addition of 1N H2SO4 solution (50 μL). Cells are then washed with washing buffer and 2% crystal violet solution (50 μL) is applied for 30 min. After washing with washing buffer (3×200 μL), 1% SDS (100 μL) is added to each well and the plates are shaken lightly for 1 hr prior to measuring the absorbance at 595 nm (Varioskan® Flash, Thermo-Fisher Scientific).
The measured OD450-655 readings are corrected for cell number by dividing the OD450-655 by the OD595 readings.

HT29 cells = experiment: (d) IL-1β-induced IL-8 release in HT29 cells; format: cell-based; conditions: Homo sapiens, HT-29, read-out: IC50 for Inhibition of Cytokine Release, IL-8
Protocol: HT29 cells, a human colon adenocarcinoma cell line, are plated in a 96 well plate (24 hrs) and pre-treated with compounds at the desired concentration for 2 hours before addition of 5 ng/ml of IL-1β (Abeam) for 24 hours. Supernatants are harvested for IL-8 quantification by Sandwich ELISA (Duo-set, R&D System). The IC50 is determined from the dose response curve.

GSK3α = GSK3α (Homo sapiens (Human), UniProt P49840); experiment: GSK 3α enzyme inhibition (FRET, Method 2); format: biochemical
Protocol: as §1
The inhibitory activities of compounds of the invention against the GSK 3α enzyme isoform (Invitrogen), are evaluated by determining the level of activation/phosphorylation of the target peptide. The GSK3-α protein (500 ng/mL, 2.5 μL) is mixed with the test compound (2.5 μL at either 4 μg/mL, 0.4 μg/mL, 0.04 μg/mL, or 0.004 μg/mL) for 2 hr at RT. The FRET peptide (8 μM, 2.5 μL), which is a phosphorylation target for GSK3α, and ATP (40 μM, 2.5 μL) are then added to the enzyme/compound mixture and the resulting mixture incubated for 1 hr. Development reagent (protease, 5 μL) is added for 1 hr prior to detection in a fluorescence microplate reader (Varioskan® Flash, ThermoFisher Scientific).
as §3

PBMCs [3] = experiment: (b) LPS-induced TNFα/IL-8 release in PBMC cells; format: cell-based; conditions: Homo sapiens, read-out: IC50 for Inhibition of Cytokine Release, IL-8
Protocol: Peripheral blood mononuclear cells (PBMCs) from healthy subjects are separated from whole blood using a density gradient (Lymphoprep, Axis-Shield Healthcare). The PBMCs are seeded in 96 well plates and treated with compounds at the desired concentration for 2 hours before addition of 1 ng/ml LPS (Escherichia Coli 0111:B4 from Sigma Aldrich) for 24 hours under normal tissue culture conditions (37° C., 5% CO2). The supernatant is harvested for determination of IL-8 and TNFα concentrations by sandwich ELISA (Duo-set, R&D systems) and read on the fluorescence microplate reader (Varioskan® Flash, ThermoFisher Scientific).

[4] = Hydrolytic stability study in DMSO and water (3:1); format: physicochemical; conditions: 1 mg/mL
Protocol: General HPLC Procedure • Agilent, Waters X-Select C18, 2.5 μm, 4.6×30 mm column, 4 min method, 5-95% MeCN/water (0.1% formic acid). • Flow rate 2.5 ml/min • Column Oven Temperature 40° C. • Detection 254 nm.
Sample Preparation • A 1.0 mg sample of test compound was dissolved in 750 μL of DMSO. Water (250 μL) was added slowly, ensuring no precipitation occurred.
Recording Stability • A 50 μL aliquot of the test solution was removed and analysed in duplicate by 5 μL HPLC injections. The peak area for the test compound was recorded following manual integration of the corresponding UV trace. • The test solution was heated to 60° C., with stirring, and 50 μL aliquots removed for HPLC analysis at 5 and 24 h timepoints.

[5] = read-out: IC50 for Inhibition of Cytokine Release, IFNγ
[6] = read-out: IC50 for Inhibition of Cytokine Release, IL-2

Sequence of c-Src (P12931 whole entry, looked up): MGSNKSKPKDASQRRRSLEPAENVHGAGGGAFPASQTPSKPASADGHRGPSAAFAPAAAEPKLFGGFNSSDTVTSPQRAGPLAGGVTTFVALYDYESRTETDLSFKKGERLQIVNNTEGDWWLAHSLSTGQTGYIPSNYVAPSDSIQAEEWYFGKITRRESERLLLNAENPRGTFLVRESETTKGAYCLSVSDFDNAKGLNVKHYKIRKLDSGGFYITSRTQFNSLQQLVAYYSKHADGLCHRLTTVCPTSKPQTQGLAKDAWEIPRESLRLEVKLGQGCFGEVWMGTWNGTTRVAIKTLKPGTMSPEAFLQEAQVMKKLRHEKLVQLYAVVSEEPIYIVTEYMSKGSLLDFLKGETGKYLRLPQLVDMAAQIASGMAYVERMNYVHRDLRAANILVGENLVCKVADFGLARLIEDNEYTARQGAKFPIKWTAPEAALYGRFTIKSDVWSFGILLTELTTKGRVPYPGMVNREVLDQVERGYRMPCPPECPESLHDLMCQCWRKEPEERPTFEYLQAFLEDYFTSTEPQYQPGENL
Sequence of GSK3α (P49840 whole entry): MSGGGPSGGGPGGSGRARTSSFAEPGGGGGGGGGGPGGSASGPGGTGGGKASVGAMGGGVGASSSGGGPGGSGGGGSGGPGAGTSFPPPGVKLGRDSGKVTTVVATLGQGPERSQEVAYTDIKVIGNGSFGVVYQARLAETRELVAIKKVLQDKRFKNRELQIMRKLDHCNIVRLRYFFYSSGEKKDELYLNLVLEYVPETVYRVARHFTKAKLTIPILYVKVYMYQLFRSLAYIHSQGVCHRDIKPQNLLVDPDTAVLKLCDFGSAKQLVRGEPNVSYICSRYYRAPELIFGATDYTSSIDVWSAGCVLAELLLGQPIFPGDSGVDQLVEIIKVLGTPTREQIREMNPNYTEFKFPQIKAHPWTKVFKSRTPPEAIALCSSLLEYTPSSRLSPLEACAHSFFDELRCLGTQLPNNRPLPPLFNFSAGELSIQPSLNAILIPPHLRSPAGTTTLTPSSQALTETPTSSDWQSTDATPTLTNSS
Sequence of p38 MAPKα (Q16539 whole entry): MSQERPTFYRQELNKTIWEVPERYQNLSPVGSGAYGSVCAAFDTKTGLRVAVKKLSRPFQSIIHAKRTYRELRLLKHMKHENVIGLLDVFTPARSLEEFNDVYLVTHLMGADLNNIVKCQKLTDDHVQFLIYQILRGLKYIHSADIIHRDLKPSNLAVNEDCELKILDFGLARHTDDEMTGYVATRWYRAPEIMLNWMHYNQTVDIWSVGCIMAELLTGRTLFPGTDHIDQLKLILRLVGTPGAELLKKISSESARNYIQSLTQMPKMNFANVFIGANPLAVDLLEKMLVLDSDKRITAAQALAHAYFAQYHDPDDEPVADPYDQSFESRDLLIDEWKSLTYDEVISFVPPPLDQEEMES

| Structure (SMILES) | IC50 (Syk) [nM] | IC50 (PBMCs [1]; [5]) [nM] | IC50 (PBMCs [1]; [6]) [nM] | IC50 (c-Src) [nM] | inhibition at 5 µg/mL (PBMCs [2]) [%] | IC50 (p38 MAPKα) [nM] | % β-catenin induction (β-catenin; 1 μg/mL) [%] | % β-catenin induction (β-catenin; 5 μg/mL) [%] | IC50 (HT29 cells) [nM] | IC50 (GSK3α) [nM] | IC50 (PBMCs [3]) [nM] | % β-catenin induction (β-catenin; 10 μg/mL) [%] | % left ([4]; 0 min) [%] | % left ([4]; 60° C., 300 min) [%] | % left ([4]; 60° C., 1440 min) [%] |
| --- | --- | --- | --- | --- | --- | --- | --- | --- | --- | --- | --- | --- | --- | --- | --- |
| COCCOCCOCCNC(=O)c1cc(Nc2cc(Oc3ccc(NC(=O)Nc4cc(C(C)(C)C)nn4-c4ccc(C)cc4)c4ccccc34)ccn2)cc(OC)c1 [Example 4, 3-((4-((4-(3-(3-(tert-Butyl)-1-(p-tolyl)-1H-pyrazol-5-yl)ureido)naphthalen-1-yl)oxy)pyridin-2-yl)amino)-5-methoxy-N-(2-(2-(2-methoxyethoxy)ethoxy)ethyl)-benzamide] | 46 | 2.4 | 37.4 | 19 | 38.8 | 50 | 5 | 12 | 5.3 | 9550 | 1.4 |  |  |  |  |
| [2H]c1c([2H])c(C([2H])([2H])[2H])c([2H])c([2H])c1-n1nc(C(C)(C)C)cc1NC(=O)Nc1ccc(Oc2ccnc(Nc3cc(C#C)cc(C(=O)NCCOCCOCCOC)c3)n2)c2ccccc12 [Example 6, 3-((4-((4-(3-(3-(tert-Butyl)-1-(2,3,5,6-tetradeutero-4-(trideuteromethyl)-phenyl)-1H-pyrazol-5-yl)ureido)naphthalen-1-yl)oxy)pyrimidin-2-yl)amino)-5-ethynyl-N-(2-(2-(2-methoxyethoxy)ethoxy)ethyl)benzamide] | 96 | 2.9 | 123 | 17 | 10.2 |  | 3 | 3 | 2.4 |  | 2.3 | −1 |  |  |  |
| C#Cc1cc(Nc2nccc(Oc3ccc(NC(=O)Nc4cc(C(C)(C)C)nn4-c4ccc(C)cc4)c4ccccc34)n2)cc(C(=O)NCCOCCOCCOCCOC)c1 [Example 7, 3-((4-((4-(3-(3-(tert-Butyl)-1-(p-tolyl)-1H-pyrazol-5-yl)ureido)naphthalen-1-yl)oxy)pyrimidin-2-yl)amino)-5-ethynyl-N-(2,5,8,11-tetraoxatridecan-13-yl)benzamide] | 237 | 3.7 | 91 | 18 | 9.1 | 88 | 0 | −2 | 1.6 | 2020 | 2.4 | −5 |  |  |  |
| C#Cc1cc(Nc2nccc(Oc3ccc(NC(=O)Nc4cc(C(C)(C)C)nn4-c4ccc(C)cc4)c4ccccc34)n2)cc(C(=O)NCCOCCOC)c1 [Example 8, 3-((4-((4-(3-(3-(tert-Butyl)-1-(p-tolyl)-1H-pyrazol-5-yl)ureido)naphthalen-1-yl)oxy)pyrimidin-2-yl)amino)-5-ethynyl-N-(2-(2-methoxyethoxy)ethyl)benzamide] | 120 | 8.5 | 55 | 20 | 6.1 | 104 | 6 | 3 | 3.2 | 2890 | 1.6 | 2 |  |  |  |
| C#Cc1cc(Nc2nccc(Oc3ccc(NC(=O)Nc4cc(C(C)C)nn4-c4ccc(C)cc4)c4ccccc34)n2)cc(C(=O)NCCN2CCOCC2)c1 [Reference Compound A, 3-ethynyl-5-((4-((4-(3-(3-isopropyl-1-(p-tolyl)-1H-pyrazol-5-yl)ureido)naphthalen-1-yl)oxy)pyrimidin-2-yl)amino)-N-(2-morpholinoethyl)benzamide, reference compound] |  |  |  |  |  |  |  |  |  |  |  |  | 100 | 82 | 36 |
